Converted amounts (≈) assume the structure as drawn.
Experiments:
[1] = target: T1, Fructose-bisphosphate aldolase class 2 (Synechocystis sp. (strain PCC 6803 / Kazusa), UniProt Q55664); assay: (§1) Inhibition of recombinant Synechocystis sp. PCC 6803 FBA2 expressed in Escherichia coli BL21 (DE3) using FBP as substrate measured over 5 mins
T1 sequence (Q55664 whole entry): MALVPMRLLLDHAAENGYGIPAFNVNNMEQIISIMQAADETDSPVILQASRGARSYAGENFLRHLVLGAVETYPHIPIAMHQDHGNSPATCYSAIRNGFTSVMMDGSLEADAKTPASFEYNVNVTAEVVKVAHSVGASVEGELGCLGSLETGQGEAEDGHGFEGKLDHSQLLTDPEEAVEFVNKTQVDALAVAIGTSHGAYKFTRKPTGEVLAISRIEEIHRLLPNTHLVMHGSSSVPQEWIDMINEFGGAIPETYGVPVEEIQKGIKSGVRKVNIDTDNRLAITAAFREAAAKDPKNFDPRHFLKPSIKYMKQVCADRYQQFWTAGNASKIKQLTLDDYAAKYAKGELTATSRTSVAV

[2] = test system: Synechocystis sp. PCC 6803; assay: Algicidal activity against wild-type Synechocystis sp. PCC 6803 after 24 hrs by microbroth dilution method; assay type: functional, organism-based
[3] = Lipophilicity, log P of the compound; assay type: physicochemical; details: octanol/water
[4] = Solubility of the compound; assay type: physicochemical
[5] = target: T2, Fructose-bisphosphate aldolase class 2 (Synechocystis sp. (strain PCC 6803 / Kazusa)) (UniProt Q55664); assay: as §1; design: concentration or dose not given beside the values
T2 sequence (whole entry): T1 sequence (Q55664 whole entry)

[6] = target: Fructose-bisphosphate aldolase class 2 (Synechocystis sp. (strain PCC 6803 / Kazusa), UniProt Q55664, R302A); assay: Inhibition of recombinant Synechocystis sp. PCC 6803 FBA2 R302A mutant expressed in Escherichia coli BL21 (DE3) using FBP as substrate measured over 5 mins
[7] = test system: Synechocystis sp. PCC 6803; assay: Selectivity ratio of Ki for recombinant Synechocystis sp. PCC 6803 FBA2 R281A mutant expressed in Escherichia coli BL21 (DE3) to Ki for recombinant Synechocystis sp. PCC 6803 FBA2 expressed in Escherichia coli BL21 (DE3)
[8] = test system: Synechocystis sp. PCC 6803; assay: Selectivity ratio of Ki for recombinant Synechocystis sp. PCC 6803 FBA2 N275A mutant expressed in Escherichia coli BL21 (DE3) to Ki for recombinant Synechocystis sp. PCC 6803 FBA2 expressed in Escherichia coli BL21 (DE3)
[9] = test system: Synechocystis sp. PCC 6803; assay: Selectivity ratio of Ki for recombinant Synechocystis sp. PCC 6803 FBA2 S55A mutant expressed in Escherichia coli BL21 (DE3) to Ki for recombinant Synechocystis sp. PCC 6803 FBA2 expressed in Escherichia coli BL21 (DE3)
[10] = test system: Synechocystis sp. PCC 6803; assay: Selectivity ratio of Ki for recombinant Synechocystis sp. PCC 6803 FBA2 T278A mutant expressed in Escherichia coli BL21 (DE3) to Ki for recombinant Synechocystis sp. PCC 6803 FBA2 expressed in Escherichia coli BL21 (DE3)
[11] = target: Fructose-bisphosphate aldolase class 2 (Synechocystis sp. (strain PCC 6803 / Kazusa), UniProt Q55664, D277A); assay: Inhibition of recombinant Synechocystis sp. PCC 6803 FBA2 D277A mutant expressed in Escherichia coli BL21 (DE3) using FBP as substrate measured over 5 mins
[12] = target: Fructose-bisphosphate aldolase class 2 (Synechocystis sp. (strain PCC 6803 / Kazusa), UniProt Q55664, T278A); assay: Inhibition of recombinant Synechocystis sp. PCC 6803 FBA2 T278A mutant expressed in Escherichia coli BL21 (DE3) using FBP as substrate measured over 5 mins
[13] = target: Fructose-bisphosphate aldolase class 2 (Synechocystis sp. (strain PCC 6803 / Kazusa), UniProt Q55664, S50A); assay: Inhibition of recombinant Synechocystis sp. PCC 6803 FBA2 S50A mutant expressed in Escherichia coli BL21 (DE3) using FBP as substrate measured over 5 mins
[14] = target: Fructose-bisphosphate aldolase class 2 (Synechocystis sp. (strain PCC 6803 / Kazusa), UniProt Q55664, N275A); assay: Inhibition of recombinant Synechocystis sp. PCC 6803 FBA2 N275A mutant expressed in Escherichia coli BL21 (DE3) using FBP as substrate measured over 5 mins
[15] = target: Fructose-bisphosphate aldolase class 2 (Synechocystis sp. (strain PCC 6803 / Kazusa), UniProt Q55664, S55A); assay: Inhibition of recombinant Synechocystis sp. PCC 6803 FBA2 S55A mutant expressed in Escherichia coli BL21 (DE3) using FBP as substrate measured over 5 mins
[16] = test system: Synechocystis sp. PCC 6803; assay: Selectivity ratio of Ki for recombinant Synechocystis sp. PCC 6803 FBA2 R302A mutant expressed in Escherichia coli BL21 (DE3) to Ki for recombinant Synechocystis sp. PCC 6803 FBA2 expressed in Escherichia coli BL21 (DE3)
[17] = target: Fructose-bisphosphate aldolase class 2 (Synechocystis sp. (strain PCC 6803 / Kazusa), UniProt Q55664, R51A); assay: Inhibition of recombinant Synechocystis sp. PCC 6803 FBA2 R51A mutant expressed in Escherichia coli BL21 (DE3) using FBP as substrate measured over 5 mins
[18] = target: Fructose-bisphosphate aldolase class 2 (Synechocystis sp. (strain PCC 6803 / Kazusa), UniProt Q55664, R281A); assay: Inhibition of recombinant Synechocystis sp. PCC 6803 FBA2 R281A mutant expressed in Escherichia coli BL21 (DE3) using FBP as substrate measured over 5 mins
[19] = test system: Synechocystis sp. PCC 6803; assay: Selectivity ratio of Ki for recombinant Synechocystis sp. PCC 6803 FBA2 S50A mutant expressed in Escherichia coli BL21 (DE3) to Ki for recombinant Synechocystis sp. PCC 6803 FBA2 expressed in Escherichia coli BL21 (DE3)
[20] = test system: Synechocystis sp. PCC 6803; assay: Selectivity ratio of Ki for recombinant Synechocystis sp. PCC 6803 FBA2 D277A mutant expressed in Escherichia coli BL21 (DE3) to Ki for recombinant Synechocystis sp. PCC 6803 FBA2 expressed in Escherichia coli BL21 (DE3)
[21] = test system: Synechocystis sp. PCC 6803; assay: Selectivity ratio of Ki for recombinant Synechocystis sp. PCC 6803 FBA2 R51A mutant expressed in Escherichia coli BL21 (DE3) to Ki for recombinant Synechocystis sp. PCC 6803 FBA2 expressed in Escherichia coli BL21 (DE3)
[22] = test system: Synechocystis sp. PCC 6803; assay: Algicidal activity against FBA2 over-expressing Synechocystis sp. PCC 6803 after 24 hrs by microbroth dilution method; assay type: functional, organism-based; details: Synechocystis sp. PCC 6803, 24 h
[23] = test system: Synechocystis sp. PCC 6803; assay: Selectivity ratio of EC50 for FBA2 over-expressing Synechocystis sp. PCC 6803 to EC50 for wild-type Synechocystis sp. PCC 6803; assay type: functional
[24] = Synechocystis sp. PCC 6803, 24 h, read-out: EC50

Chain of Fructose-bisphosphate aldolase class 2 (Synechocystis sp. (strain PCC 6803 / Kazusa), UniProt Q55664, R281A) (Q55664 2-359 R281A limits assumed): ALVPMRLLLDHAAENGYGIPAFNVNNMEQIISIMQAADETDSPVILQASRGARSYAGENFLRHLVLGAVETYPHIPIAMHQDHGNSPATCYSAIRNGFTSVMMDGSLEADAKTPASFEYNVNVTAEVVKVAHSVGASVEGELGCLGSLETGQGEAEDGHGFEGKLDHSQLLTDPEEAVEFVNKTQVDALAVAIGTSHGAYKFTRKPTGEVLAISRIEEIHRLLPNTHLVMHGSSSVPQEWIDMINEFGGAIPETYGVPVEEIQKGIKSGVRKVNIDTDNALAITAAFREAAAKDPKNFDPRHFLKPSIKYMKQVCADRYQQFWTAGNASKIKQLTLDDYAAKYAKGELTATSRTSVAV
Chain of Fructose-bisphosphate aldolase class 2 (Synechocystis sp. (strain PCC 6803 / Kazusa), UniProt Q55664, S55A) (Q55664 2-359 S55A limits assumed): as the sequence (Q55664 2-359 R281A limits assumed) above, with S54A, A280R counted along it
Chain of Fructose-bisphosphate aldolase class 2 (Synechocystis sp. (strain PCC 6803 / Kazusa), UniProt Q55664, S50A) (Q55664 2-359 S50A limits assumed): as the sequence (Q55664 2-359 R281A limits assumed) above, with S49A, A280R counted along it
Chain of Fructose-bisphosphate aldolase class 2 (Synechocystis sp. (strain PCC 6803 / Kazusa), UniProt Q55664, N275A) (Q55664 2-359 N275A limits assumed): as the sequence (Q55664 2-359 R281A limits assumed) above, with N274A, A280R counted along it
Chain of Fructose-bisphosphate aldolase class 2 (Synechocystis sp. (strain PCC 6803 / Kazusa), UniProt Q55664, R302A) (Q55664 2-359 R302A limits assumed): as the sequence (Q55664 2-359 R281A limits assumed) above, with A280R, R301A counted along it
Chain of Fructose-bisphosphate aldolase class 2 (Synechocystis sp. (strain PCC 6803 / Kazusa), UniProt Q55664, R51A) (Q55664 2-359 R51A limits assumed): as the sequence (Q55664 2-359 R281A limits assumed) above, with R50A, A280R counted along it
Chain of Fructose-bisphosphate aldolase class 2 (Synechocystis sp. (strain PCC 6803 / Kazusa), UniProt Q55664, T278A) (Q55664 2-359 T278A limits assumed): as the sequence (Q55664 2-359 R281A limits assumed) above, with T277A, A280R counted along it
Chain of Fructose-bisphosphate aldolase class 2 (Synechocystis sp. (strain PCC 6803 / Kazusa), UniProt Q55664, D277A) (Q55664 2-359 D277A limits assumed): as the sequence (Q55664 2-359 R281A limits assumed) above, with D276A, A280R counted along it

O=C(NNC(=S)NC(=O)c1ccccc1)c1ccc(Br)cc1
Ki [1]: 5.2 µM | EC50 [2]: 1.58 ppm

CCNCCc1ccccc1-c1ccccc1
logP [3]: 4 | solubility [4]: 8350 µg/mL (≈ 37100 µM)

O=C(NC(=S)Nc1ccc(Br)cc1)c1ccccc1
inhibition [5]: 42%

O=C(NC(=S)Nc1ccc([N+](=O)[O-])cc1O)c1ccccc1
Ki [1]: 16.7 µM | logP [3]: 2.6 | solubility [4]: 180 µg/mL (≈ 567 µM)

O=C(NNC(=S)NC(=O)c1ccccc1)c1cccc([N+](=O)[O-])c1
Ki [1]: 1.87 µM | EC50 [2]: 0.39 ppm

O=C(NC(=S)Nc1ccccc1[N+](=O)[O-])c1ccccc1
inhibition [5]: 15%

O=C(NC(=S)Nc1ccc([N+](=O)[O-])cc1O)c1ccc([N+](=O)[O-])cc1
Ki [6]: 24.4 µM | Ratio Ki [7]: 76 | Ratio Ki [8]: 20 | Ratio Ki [9]: 2.1 | Ratio Ki [10]: 46.3 | Ki [11]: 4.6 µM | Ki [1]: 1.9 µM | Ki [12]: 87.5 µM | Ki [13]: 3.9 µM | Ki [14]: 37.9 µM | Ki [15]: 3.4 µM | Ratio Ki [16]: 12.9 | Ki [17]: 3.3 µM | Ki [18]: 144 µM | Ratio Ki [19]: 2.1 | Ratio Ki [20]: 2.4 | Ratio Ki [21]: 1.7

O=C(O)c1cccc([C@@H]2CCC[C@@H]2c2ncc3nc[nH]c3n2)c1
logP [3]: 2.96 | solubility [4]: 13100 µg/mL (≈ 42600 µM)

O=C(NC(=S)Nc1ccc([N+](=O)[O-])cc1O)c1ccc(C(F)(F)F)cc1
Ki [1]: 5.5 µM

O=CNC(=S)Nc1c(O)cc([N+](=O)[O-])cc1-c1ccccc1
logP [3]: 2.48 | solubility [4]: 160 µg/mL (≈ 504 µM)

O=C(NC(=S)Nc1ccccc1O)c1ccccc1
inhibition [5]: 37%

Cc1ccc(C(=O)NC(=S)Nc2ccc([N+](=O)[O-])cc2O)cc1
Ki [1]: 5.5 µM

O=C(NC(=S)Nc1cc([N+](=O)[O-])ccc1O)c1ccccc1
Ki [1]: 9.1 µM

O=C(NNC(=S)NC(=O)c1ccccc1)c1ccc(F)cc1
Ki [1]: 3.5 µM | EC50 [2]: 8.2 ppm

O=C(NC(=S)NNC(=O)c1ccc(O)cc1O)c1ccccc1
Ki [1]: 1.25 µM | EC50 [2, 24]: 1.25 µM

O[C@H]1CO[C@@H](O)C(c2nc3ncncc3n2-c2ccccc2)C1 (stereo not given in full)
logP [3]: 0.82 | solubility [4]: 440 µg/mL (≈ 1410 µM)

c1ccc(-n2c(-n3cnc4ncncc43)nc3cncnc32)cc1
logP [3]: 0.99 | solubility [4]: 290 µg/mL (≈ 923 µM)

O=C(NC(=S)Nc1ccccc1Cl)c1ccccc1
inhibition [5]: 30%

O=C(NC(=S)NNC(=O)c1ccccc1O)c1ccc(Cl)cc1
Ki [1]: 0.63 µM | EC50 [2]: 0.98 ppm

O=C(NC(=S)Nc1cc([N+](=O)[O-])ccc1O)c1ccc(Cl)cc1
Ki [1]: 9.1 µM

O=CNC(=S)Nc1cc(-c2ccccc2)c([N+](=O)[O-])cc1O
logP [3]: 2.45 | solubility [4]: 160 µg/mL (≈ 504 µM)

O=C(NNC(=S)NC(=O)c1ccccc1)c1ccc([N+](=O)[O-])cc1
Ki [1]: 2.8 µM | EC50 [2, 24]: 2.7 µM

O=C(NC(=S)NNC(=O)c1ccccc1O)c1ccc(F)cc1
Ki [1]: 0.88 µM | EC50 [2, 24]: 0.88 µM

Oc1cccc(COC2CC[C@@H](O)C(Cc3ccccc3)O2)c1 (stereo not given in full)
logP [3]: 3.32 | solubility [4]: 200 µg/mL (≈ 636 µM)

O=C(NC(=S)Nc1ccc(O)cc1)c1ccccc1
inhibition [5]: 22%

O=C(NNC(=S)NC(=O)c1ccccc1)c1cccc(Br)c1
Ki [1]: 3.1 µM | EC50 [2]: 5.9 ppm

O=C(NC(=S)Nc1ccc([N+](=O)[O-])cc1)c1ccccc1
inhibition [5]: 60%

O[C@@H]1CC[C@@](O)(n2c(-c3ccccc3)nc3ncncc32)OC1
logP [3]: 0.94 | solubility [4]: 730 µg/mL (≈ 2340 µM)

O=C(NC(=S)NNC(=O)c1ccccc1O)c1ccccc1
Ki [6]: 20.4 µM | Ratio Ki [7]: 80.5 | Ratio Ki [8]: 24.5 | Ratio Ki [9]: 1.5 | Ratio Ki [10]: 6.6 | Ki [11]: 7.2 µM | Ki [1]: 0.65 to 0.7 µM | Ki [12]: 4.3 µM | Ki [13]: 15.2 µM | Ki [14]: 15.9 µM | EC50 [2, 24]: 0.28 µM | Ki [15]: 1 µM | EC50 [22]: 4.98 µM | Ratio Ki [16]: 31 | Ki [17]: 3.9 µM | Ki [18]: 52.3 µM | Ratio Ki [19]: 23.4 | Ratio Ki [20]: 11 | Ratio EC50 [23]: 18 | Ratio Ki [21]: 6

N[C@@H](Cc1ccc(O)cc1-c1ccccc1)c1ccccc1O
logP [3]: 3.23 | solubility [4]: 6350 µg/mL (≈ 20800 µM)

O=C(NC(=S)Nc1ccc([N+](=O)[O-])cc1O)c1ccc(-c2ccccc2)cc1
Ki [1]: 2.5 µM
